Laboratory results published in publication PMC5286520 (Scientific Reports, 2017).
Where two headings read alike, the source gives them in different places. Bridge positions count the residues as written; N and C are the ends. Square brackets hold non-standard residues; d marks the D form. Peptide text beside a SMILES is read from it.

What was measured:
human OTR [1] = biological target: T1, human OTR (Homo sapiens, UniProt P30559); assay: Radioligand displacement of [3H] oxytocin, human OTR membranes; assay type: binding; details: read-out: Affinity (Ki)
T1 construct: expressed in transfected cells; host or cells: HEK293 cells, transient (jetPRIME)
T1 sequence (P30559 1-389): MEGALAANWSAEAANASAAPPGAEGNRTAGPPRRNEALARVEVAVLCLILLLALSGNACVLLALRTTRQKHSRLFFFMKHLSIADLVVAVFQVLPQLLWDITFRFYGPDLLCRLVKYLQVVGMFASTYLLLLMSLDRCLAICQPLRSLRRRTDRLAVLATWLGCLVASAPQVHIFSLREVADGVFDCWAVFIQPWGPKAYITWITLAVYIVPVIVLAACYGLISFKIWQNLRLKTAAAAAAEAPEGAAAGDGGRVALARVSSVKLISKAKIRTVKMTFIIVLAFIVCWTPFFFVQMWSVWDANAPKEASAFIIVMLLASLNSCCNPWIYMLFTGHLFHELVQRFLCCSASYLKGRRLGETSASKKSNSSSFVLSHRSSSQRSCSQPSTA
Experimental: (§1) Chinese Hamster Ovary cells (CHO) were cultured in Ham’s F12 media supplemented with 10% fetal bovine serum (FBS), 1% PenStrep (all from Sigma-Aldrich, Munich, Germany) and grown in a humidified atmosphere of 37 °C, 5% CO2 and passaged on average twice per week. CHO cells were used for expression of inotocin receptor (L. niger, T. castaneum). Cell transfections were carried out with 10 μg of plasmid using Lipofectamine LTX (Life Technologies, Invitrogen, Carlsbad, USA) for invertebrate receptors. For the expression of human OTR, V1aR, V1bR and V2R, HEK293 cells were transfected using jetPRIME (Polyplus Transfections, Illkirch-Graffenstaden, France)[35]. Cells were maintained in DMEM (GE Healthcare Hy Clone™, Logan, USA) supplemented with 10% FBS and 1% PenStrep.
(§2) Unbound ligands were washed off (Skatron Cell Harvester). […] Bindings of [^3H] AVP and [^3H] […] Bindings of [^3H] inotocin to membranes (10 μg) expressing INTR from L. niger, or [^3H] inotocin to membranes (10 μg) expressing INTR from T. castaneum, respectively, were assayed for displacement with an excess of inotocin (10^−11 to 10^−5 M) (n ≥ 3, except where otherwise stated). […] Specific binding was calculated by subtracting the non-specific binding from the total binding. […] Inhibition constants (Ki) were calculated from IC50 using the method by Cheng and Prusoff[65].

human V1bR [2] = biological target: T2, human V1bR (Homo sapiens, UniProt P47901); assay: cell-based
T2 construct: expressed in transfected cells; host or cells: HEK293 cells, transient (jetPRIME)
T2 sequence (P47901 1-424): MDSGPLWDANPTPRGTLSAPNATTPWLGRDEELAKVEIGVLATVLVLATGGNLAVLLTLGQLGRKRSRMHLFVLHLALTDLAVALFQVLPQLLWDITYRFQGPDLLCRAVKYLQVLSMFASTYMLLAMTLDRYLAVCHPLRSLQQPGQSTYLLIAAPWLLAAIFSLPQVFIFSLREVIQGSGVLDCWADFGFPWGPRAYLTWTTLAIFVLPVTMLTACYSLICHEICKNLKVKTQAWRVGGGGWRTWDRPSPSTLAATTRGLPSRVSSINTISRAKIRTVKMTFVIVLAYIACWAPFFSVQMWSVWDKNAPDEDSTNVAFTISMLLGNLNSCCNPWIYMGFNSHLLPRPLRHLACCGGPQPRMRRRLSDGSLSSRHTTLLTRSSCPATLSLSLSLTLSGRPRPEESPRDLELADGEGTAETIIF
Experimental: as §1
(§3) Activation of Gq-signalling via the human V1aR, V1bR and OTR, as well as the insect INTR was measured by inositol-1-phosphate (IP1) quantification using an IP1 Tb kit (Cisbio, Codolet, France). Transfected cells were seeded in 96 well-plates, with a cell density of 10^4 cells per well. Cell culture media was removed from the wells after 6 h and 70 μL of peptide of interest, prepared in IP1 1X Stimulation Buffer at the desired concentrations, was added. Samples were measured in technical triplicates. After 1 h incubation at 37 °C, 15 μL of IP1-d2 was added, following the same volume of Ab-cryptate. […] Activation of Gs-signalling via the human V2R was measured using a luciferase reporter assay. HEK293 transiently expressing V2R were co-transfected with the pGL4.29 [luc2P/CRE/Hygro] (Promega, Mannheim, Germany) plasmid. […] For cell-based functional assays (luciferase and IP1), subtraction of the negative control (stimulation buffer) was applied to all data set. The normalization was performed to the highest value of the positive control from at least 4 independent experiments. Data were fitted using GraphPad Prism 5.0 with an equation for non-linear regression (sigmoidal, slope fit of 1). Values are reported as mean ± SEM. For Schild regression analysis, each concentration-ratio (r) was calculated as the agonist EC50 in the presence of a respective concentration of [D-Arg8]-inotocin by the EC50 of the agonist alone.

human V2R [3] = biological target: T3, human V2R (Homo sapiens, UniProt P30518); assay: cell-based; details: luciferase reporter, CRE response element; mean ± SEM; read-out: Potency (EC50)
T3 construct: expressed in transfected cells; host or cells: HEK293 cells, transient (jetPRIME); for the reporter assay co-transfected with pGL4.29 [luc2P/CRE/Hygro]
T3 sequence (P30518 whole entry): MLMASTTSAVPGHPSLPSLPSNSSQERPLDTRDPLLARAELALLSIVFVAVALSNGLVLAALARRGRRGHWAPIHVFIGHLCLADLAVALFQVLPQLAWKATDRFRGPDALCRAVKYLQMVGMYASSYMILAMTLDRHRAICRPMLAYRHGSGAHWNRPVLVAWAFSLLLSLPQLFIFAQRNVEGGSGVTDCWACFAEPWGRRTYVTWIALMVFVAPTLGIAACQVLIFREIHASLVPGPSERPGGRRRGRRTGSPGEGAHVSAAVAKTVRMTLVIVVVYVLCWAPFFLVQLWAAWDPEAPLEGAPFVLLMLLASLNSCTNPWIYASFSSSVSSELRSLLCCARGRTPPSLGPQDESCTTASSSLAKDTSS
Experimental: as §1, §3

human V2R [4] = biological target: T3, human V2R; assay: Radioligand displacement of [3H] vasopressin, human V2R membranes; assay type: binding
Experimental: as §1
Unbound ligands were washed off (Skatron Cell Harvester). […] Bindings of [^3H] AVP and [^3H] […] Bindings of [^3H] inotocin to membranes (10 μg) expressing INTR from L. niger, or [^3H] inotocin to membranes (10 μg) expressing INTR from T. castaneum, respectively, were assayed for displacement with an excess of inotocin (10^−11 to 10^−5 M) (n ≥ 3, except where otherwise stated). […] Specific binding was calculated by subtracting the non-specific binding from the total binding. IC50 values were obtained by fitting the data to a three-parameter logistic Hill equation. Inhibition constants (Ki) were calculated from IC50 using the method by Cheng and Prusoff[65].

human V1aR [5] = biological target: T4, human V1aR (Homo sapiens, UniProt P37288); assay: cell-based
T4 sequence (P37288 whole entry): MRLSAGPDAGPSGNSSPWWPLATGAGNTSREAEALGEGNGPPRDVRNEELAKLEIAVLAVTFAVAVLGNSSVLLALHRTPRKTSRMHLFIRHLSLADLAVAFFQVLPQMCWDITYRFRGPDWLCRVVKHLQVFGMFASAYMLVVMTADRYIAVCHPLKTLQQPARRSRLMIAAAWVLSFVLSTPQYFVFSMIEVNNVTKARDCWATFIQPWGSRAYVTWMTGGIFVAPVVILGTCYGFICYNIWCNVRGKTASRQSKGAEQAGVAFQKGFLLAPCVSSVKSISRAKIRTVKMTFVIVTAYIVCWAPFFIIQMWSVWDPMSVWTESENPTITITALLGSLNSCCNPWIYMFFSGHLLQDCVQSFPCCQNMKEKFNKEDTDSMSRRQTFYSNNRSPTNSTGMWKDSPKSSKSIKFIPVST

human V1aR [6] = biological target: T4, human V1aR; assay: Radioligand displacement of [3H] vasopressin, human V1aR membranes; assay type: binding; design: expressed in transfected cells; host or cells: HEK293 cells, transient (jetPRIME)
Experimental: as §1, §2

human V1bR [7] = biological target: T2, human V1bR; assay: Radioligand displacement of [3H] vasopressin, human V1bR membranes; assay type: binding
Text: Unbound ligands were washed off (Skatron Cell Harvester). […] For the displacement at the human OTR, V1aR, V1bR and V2R the normalization to 100% refers on average to 0.49, 1.4, 0.36, 1.1 pmoles of ligand bound per milligram of membrane for human OTR, V1aR, V1bR and V2R, respectively. […] For the displacement at the insect receptors the normalization to 100% refers on average to 0.65 and 0.69 pmoles of ligand bound per milligram of membrane for inotocin receptor from L. niger and T. castaneum, respectively. Bindings of [^3H] inotocin to membranes (10 μg) expressing INTR from L. niger, or [^3H] inotocin to membranes (10 μg) expressing INTR from T. castaneum, respectively, were assayed for displacement with an excess of inotocin (10^−11 to 10^−5 M) (n ≥ 3, except where otherwise stated). […] Specific binding was calculated by subtracting the non-specific binding from the total binding. IC50 values were obtained by fitting the data to a three-parameter logistic Hill equation. Inhibition constants (Ki) were calculated from IC50 using the method by Cheng and Prusoff[65].

[8] = assay type: in vitro ADME, human; details: for half-life: 100 μM peptide, read-out: half-life t½ (converted); for degradation in human serum: within 24 h
Experimental: Serum stability was tested as described previously. Briefly, serum was obtained prepared from human blood (self-donor), allowed to coagulate for 2 h at 23 °C and centrifuged at 12,000 × g for 10 min. Peptides (100 μM) were incubated in serum for 2, 4, 6, 8, 10 and 24 h at 37 °C. To evaluate peptide stability, aliquots ([…]) were analysed via RP-HPLC (UltiMate 3000, Thermo Scientific Dionex, Vienna, Austria) on a C18 column (Phenomenex Kinetex, Aschaffenburg, Germany) with a 3% gradient using 0.1% (v/v) TFA and 90/10/0.1% (v/v/v) acetonitrile/H2O/TFA as eluents. Half-life (t1/2) of peptides was calculated using non-linear regression analysis using Graph Pad Prism.
Supplementary Fig. 5. Human serum stability of the inotocin D-analogue. [D-Arg 8 ]-inotocin […]
serum and their stability monitored via HPLC over a time course of 2, 4, 6, 8, 10 and 24 h. Melittin, a haemolytic peptide from the bee venom was used as a positive control f or peptide degradation.
Area under the curves of samples was determined and correlated to the negative control analyte, which was dissolved in 0.1% TFA; thus they were not subject to degradation and were assumed therefore as 100%. Peptide stability was expressed in percentage of peptide remaining.
(1 picture or pasted object on this page, not shown here)

human V1aR [9] = biological target: T4, human V1aR; assay: IP1 accumulation, HEK293 cells expressing human V1aR; assay type: cell-based; design: expressed in transfected cells; host or cells: HEK293 cells, transient (jetPRIME)
Experimental: as §1, §3

human OTR [10] = biological target: T1, human OTR; assay: IP1 accumulation, HEK293 cells expressing human OTR; assay type: cell-based
Experimental: as §1, §3

[11] = tested on: inotocin R (T. castaneum); assay: IP1 accumulation, CHO cells expressing T. castaneum inotocin receptor; assay type: cell-based, Tribolium castaneum; details: 10 µM peptide, T. castaneum INTR
Experimental: as §1
(§4) Activation of Gq-signalling via the human V1aR, V1bR and OTR, as well as the insect INTR was measured by inositol-1-phosphate (IP1) quantification using an IP1 Tb kit (Cisbio, Codolet, France). Transfected cells were seeded in 96 well-plates, with a cell density of 10^4 cells per well. […] Samples were measured in technical triplicates. […] Activation of Gs-signalling via the human V2R was measured using a luciferase reporter assay. […] For Schild regression analysis, each concentration-ratio (r) was calculated as the agonist EC50 in the presence of a respective concentration of [D-Arg8]-inotocin by the EC50 of the agonist alone.

inotocin R (L. niger) = assay: IP1 accumulation, CHO cells expressing L. niger inotocin receptor; assay type: cell-based, Lasius niger; details: 10 µM peptide, L. niger INTR
Experimental: as §1, §4

[12] = IP1 accumulation, mean ± SEM, read-out: Potency (EC50)
[13] = Affinity (Ki), displacement of [3H] vasopressin, mean ± SEM
[14] = IP1 response, human V1aR, read-out: EC50
[15] = IP1 response, human OTR, read-out: EC50

Row | Compound | Ki (human OTR [1]) | EC50 (human V1bR [2]; [12]) | EC50 (human V1bR [2]; IP1 response, human V1bR, read-out: EC50) | EC50 (human V2R [3]) | Ki (human V2R [4]; [13]) | Ki (human V2R [4]; Ki, no significant displacement, human V2 receptor) | Kb (human V1aR [5]) | binding selectivity (human V1aR [6]; human V1aR over OTR, V1bR and V2R) | Ki (human V1bR [7]; [13]) | Ki (human V1bR [7]; Ki, no significant displacement, human V1b receptor) | remaining at 24 h ([8]; human serum, 37 °C, 24 h, read-out: peptide still present after 24 h) | EC50 (human V1aR [9]; [12]) | EC50 (human V1aR [9]; [14]) | EC50 (human OTR [10]; [12]) | EC50 (human OTR [10]; [15]) | activation (IP1 formation) [11] | activation (IP1 formation) (inotocin R (L. niger)) | Ki (human V1aR [6]; read-out: Affinity (Ki)) | half-life ([8]; human serum, 37 °C) | degradation in human serum [8]
1 | CC[C@H](C)[C@@H]1NC(=O)[C@H](CC(C)C)NC(=O)[C@@H](N)CSSC[C@@H](C(=O)N2CCC[C@H]2C(=O)N[C@H](CCCNC(=N)N)C(=O)NCC(N)=O)NC(=O)[C@H](CC(N)=O)NC(=O)[C@H]([C@@H](C)O)NC1=O [[D-Arg8]-inotocin] (H-CLITNCP[dR]G-NH2; disulfide 1-6) | > 4 µM | > 100 µM | > 10 µM | 0.164 ± 0.026 µM | > 100 µM | > 4 µM | 0.0158 µM | 3,000 fold | > 100 µM | > 4 µM | > 70% | > 100 µM | > 10 µM | > 100 µM | > 10 µM |  |  |  |  | 
2 | 1-desamino-8-D-arginine-vasopressin [Desmopressin] |  |  |  |  |  |  |  |  |  |  |  |  |  |  |  | inactive | inactive |  |  | 
3 | CC[C@H](C)[C@@H]1NC(=O)[C@H](CC(C)C)NC(=O)[C@@H](N)CSSC[C@@H](C(=O)N2CCC[C@H]2C(=O)N[C@@H](CCCNC(=N)N)C(=O)NCC(N)=O)NC(=O)[C@H](CC(N)=O)NC(=O)[C@H]([C@@H](C)O)NC1=O [inotocin] (H-CLITNCPRG-NH2; disulfide 1-6) | 0.062 ± 0.037 µM | 0.056 ± 0.0097 µM |  | > 1.5 µM | > 100 µM |  |  |  | 0.012 ± 0.0065 µM |  |  | > 100 µM | > 10 µM | > 100 µM | > 10 µM |  |  | 0.011 ± 0.0044 µM | 2.8 h | fully degraded
4 | CC[C@H](C)[C@H](NC(=O)CN)C(=O)NCC(=O)N[C@@H](C)C(=O)N[C@H](C(=O)N[C@@H](CC(C)C)C(=O)N[C@@H](CCCCN)C(=O)N[C@H](C(=O)N[C@@H](CC(C)C)C(=O)N[C@H](C(=O)N[C@H](C(=O)NCC(=O)N[C@@H](CC(C)C)C(=O)N1CCC[C@H]1C(=O)N[C@@H](C)C(=O)N[C@@H](CC(C)C)C(=O)N[C@H](C(=O)N[C@@H](CO)C(=O)N[C@@H](Cc1c[nH]c2ccccc12)C(=O)N[C@H](C(=O)N[C@@H](CCCCN)C(=O)N[C@@H](CCCNC(=N)N)C(=O)N[C@@H](CCCCN)C(=O)N[C@@H](CCCNC(=N)N)C(=O)N[C@@H](CCC(N)=O)C(=O)N[C@@H](CCC(N)=O)C(N)=O)[C@@H](C)CC)[C@@H](C)CC)[C@@H](C)O)[C@@H](C)O)C(C)C)C(C)C [melittin] |  |  |  |  |  |  |  |  |  |  |  |  |  |  |  |  |  |  | 0.7 h | fully degraded
